Measured values: patent publication US20240374646A1, “COMPOSITION FOR INHIBITING INFLAMMATION OR AGING OF STEM CELLS, AND METHOD FOR INHIBITING INFLAMMATION OR AGING BY USING SAME” (MITOIMMUNE THERAPEUTICS INC., priority 2021, published 2024)

What was measured:
mTOR = assay: Western blotting, mTOR phosphorylation ratio (mTORC1 pathway); type: cell-based, human; conditions: vs MSC control exposed to TNF-α/IFN-γ; FIG. 4D
Method: (§1) Further, the phosphorylation-induced activation ratios of AKT/mTOR/S6K, which represents the mTORC1 pathway, was analyzed. mTORC1 activation is known to not only induce senescence-associated phenotypes in MSCs, but also impair quiescence and sternness. In the present experiment, the phosphorylation ratio was confirmed using western blotting analysis as described below.
(§2) Proteins were extracted with a Pro-Prep protein lysis buffer (iNtRON) and quantified by a protein quantitative analysis kit (BIOMAX, Seoul, Korea). Samples were then heated in 4× Laemmli sample buffer (Bio-Rad) containing 2-mercaptoethanol (Bio-Rad), and proteins were loaded onto an 8% sodium dodecyl sulfate polyacrylamide gel and electrophoresed at 60 V for 30 minutes, and then electrophoresed at 120 V for 1 hour. […]
(§3) Immunoreactive bands were detected using an enhanced chemiluminescence detection reagent (Clarity™ Western blot substrate, Bio-Rad) and images of the bands were obtained using ImageSaver Version 6 (ATTO, Tokyo, Japan). The intensity of each band was analyzed with CA4 analyzer software (ATTO), and each experiment was performed in triplicate under the same conditions. […]

AKT = assay: Western blotting, AKT phosphorylation ratio (mTORC1 pathway); type: cell-based, human; conditions: vs MSC control exposed to TNF-α/IFN-γ; FIG. 4D
Method: as §1, §2, §3

[1] = tested on: TNF-α/IFN-γ-exposed hPD-MSCs; assay: Reactive oxygen species (ROS) assay, H2DCFDA; type: cell-based, human; conditions: TNF-α/IFN-γ-exposed MSC control (TI) treated with compound; FIG. 3F
Method: To investigate ROS levels, a total of 5×10^3 hPD-MSCs were seeded into each well of a 96-well black-microplate (SPL, 33196) and cultured for 24 hours, and then the cells were washed and cultured in a pre-warmed Hanks' balanced salt solution (14025092, ThermoFisher) containing 50 μM H2DCFDA (D399; ThermoFisher) for 30 minutes. Fluorescence intensity at a wavelength of 555 nm was measured at a wavelength of 488 nm using a Multi-Mode MicroPlate Reader (FlexStation 3, Molecular Devices, Silicon Valley, CA, USA), and the results are shown in FIG. 3F.

[2] = tested on: TNF-α/IFN-γ-exposed hPD-MSCs; assay: Cell viability at each concentration of the example compound; type: cell-based; conditions: TNF-α/IFN-γ exposure, different concentrations of compound; FIG. 1D
Method: Human placenta-derived mesenchymal stem cells (hPD-MSCs) were harvested from inside the placental chorion, and the harvested cells were cultured in an alpha-Minimum Essential medium (Cytiva, Marlborough, MA, USA) supplemented with 10% fetal bovine serum (ThermoFisher, Waltham, MA, USA), 1% penicillin/streptomycin (ThermoFisher, Waltham, MA, USA), 25 ng/mL human fibroblast growth factor-4 (Peprotech, Rocky Hill, NJ, USA) and 1 μg/mL heparin (Merck, San Francisco, CA, USA). A total of 1×10^5 hPD-MSCs were seeded in a cell culture dish (90×20 mm) (SPL, Pocheon, Korea) and cultured at 37° C. in an incubator containing 5% CO2. The cells were subcultured every 4 days until reaching 70 to 80% confluency. Expanded cells were obtained at passage 12 or 13. During subculture, viable cells were stained with Trypan blue (Merck) and the number of cells was manually counted.
In a passage for sample extraction, hPD-MSCs were cultured for 24 hours in a medium with or without an example compound (5-[(1,1-dioxido-4-thiomorpholinyl)methyl]-2-phenyl-N-(tetrahydro-2H-pyran-4-yl)-1H-indole-7-amine) while including 2.5 ng/mL TNF-α (Peprotech) and 25 ng/mL IFN-γ (Peprotech).
Meanwhile, upon exposure to TNF-α/IFN-γ and treatment with the example compound, cell viability was evaluated, and the results are shown in FIG. 1D.

[3] = tested on: dynamin-related protein 1 (DRP1); assay: Real-time qPCR, mitochondrial dynamics gene DRP1; type: cell-based, human; conditions: vs TNF-α/IFN-γ-exposed MSC control (TI); FIG. 2B
Method: (§4) Real-time qPCR was performed using an Easy-Spin Total RNA Kit (iNtRON, Seongnam, Korea) to extract total RNA from hPD-MSCs and RNA concentration was adjusted to 100 ng/μL using a microplate spectrophotometer (Epoch™ Microplate Spectrophotometer, BioTek, Winooski, VT, USA), and the extracted RNA was reverse transcribed into cDNA using RT PreMix (dT20) (Bioneer, Seoul, Korea) using a SimpliAmp Thermal Cycler (Life Technologies, Carlsbad, CA, USA). Real-time qPCR was performed using a real-time PCR machine (CFX Connect, Bio-Rad, Hercules, CA, USA), SYBR Green Supermix (Bio-Rad) and the relevant primers, and all experiments were performed in triplicate for statistical analysis.
To investigate mitochondrial dynamics, real-time qPCR was performed to analyze the expression of dynamin-related protein 1 (DRP1), which is a mitochondrial division-related gene, and mitofusion 1 (MFN1) and mitofusion 2 (MFN2), which are […] mitochondrial membrane fusion-related genes. As the real-time qPCR analysis method, the same method described in Experimental Example 1-2 above was used, and the results are shown in FIG. 2B.

IL-6 = assay: Real-time qPCR, SASP factor IL-6; type: cell-based, human; conditions: vs MSCs exposed to TNF-α/IFN-γ; FIG. 4B
Method: as §4
In the present experiment, the expression of IL-1β, IL-6, and monocyte chemotactic protein-1 (MCP-1), which are SASP-associated factors of the untreated MSC control, the TNF-α/IFN-γ-exposed MSC control (TI), and the experimental group treated with the example compound in the TNF-α/IFN-γ-exposed MSC control was analyzed by real-time qPCR. As the real-time qPCR analysis method, the same method described in Experimental Example 1-2 above was used, and the results are shown in FIGS. 4A to 4C.

In the case of `O=S1(=O)CCN(Cc2cc(NC3CCOCC3)c3[nH]c(-c4ccccc4)cc3c2)CC1` [example compound, 5-[(1,1-dioxido-4-thiomorpholinyl)methyl]-2-phenyl-N-(tetrahydro-2H-pyran-4-yl)-1H-indole-7-amine], the “reduction of mTOR phosphorylation ratio (pmTOR/mTOR)” value (mTOR) is reported as about 30%, the “reduction of AKT phosphorylation ratio (pAKT/AKT)” value (AKT) is reported as “about 25%” and the ROS value [1] is reported as “reduced to the level of the untreated MSC control”. The cell viability [2] was “high”, the DRP1 expression level [3] was “slightly reduced” and the IL-6 expression level (IL-6) was “decreased”.
